Source: the Biogen ADME set (Fang et al. 2023)
Values after ≈ are worked out from the molar mass of the structure shown.

Settings: for aqueous solubility: pH 6.8

MDR1-MDCK efflux ratio	intrinsic clearance, human liver microsomes [mL/min/kg]	intrinsic clearance, rat liver microsomes [mL/min/kg]	aqueous solubility [µg/mL]	fraction unbound, rat plasma	fraction unbound, human plasma	Structure (SMILES)
9.02	≤ 4.74	19.3	27 (≈ 95.6 µM)			Cc1ccc2nc(C)c(-c3nc(C)nn3CCO)cc2c1
	≤ 4.74	191				CN1CCCN(C(=O)Nc2cccc(OCC(F)F)n2)CC1
0.524	12.9	1110				NC(=O)CN1CCC(COc2ccccc2C(F)(F)F)CC1
	9.68	527				Cc1nc(C2CCN(c3ccc(F)cc3C#N)CC2)no1
14.6			38.5 (≈ 100 µM)			CC(C)S(=O)(=O)c1ccc2nccc(Nc3ccc4scnc4c3)c2c1
0.716	27.8	655	18.5 (≈ 74.2 µM)			Cc1cc(OCc2ncc(C(C)(C)C)o2)nn1C
0.465	257	503	35.5 (≈ 128 µM)			Cc1ccc(C(=O)Nc2ccccc2-c2ccccc2)o1
4.48	4.84	47	49.6 (≈ 169 µM)			O=C1NCCCCC1NC(=O)N1CCc2sccc2C1 (stereo unspecified)
2.81	≤ 4.74	27.3	40.8 (≈ 144 µM)	0.412		O=C(Nc1cccnc1)c1ccnc(NC(=O)C2CC2)c1
2.66	≤ 4.74				0.827	NC1CCC(C(=O)N2CCC(c3c[nH]c4ncccc34)CC2)C1 (stereo unspecified)
0.791	≤ 4.74	≤ 10.7	48.3 (≈ 237 µM)			CC(=O)N1CCC(c2ccccn2)CC1
0.559	48	214	9.73 (≈ 43.4 µM)			Cc1cc(C)cc(Oc2cc(C#N)ccn2)c1
	8.22	147				O=C(Nc1nnc[nH]1)c1ccc(C2SCCCS2)cc1
23.5	≤ 4.74	19.9	45 (≈ 157 µM)			CCNC(=O)C1CN(c2nc(C3CC3)nc3c2CCC3)C1
	186	2420				Cc1ccc(S(=O)(=O)N2CCCc3ccc(NS(=O)(=O)c4ccc(F)cc4C)cc32)cc1
1.42	≤ 4.74	76.1				CSC1(CNc2cc(C)nc(C)n2)CCOCC1
			16 (≈ 51.2 µM)			CN(Cc1cnccn1)C(=O)c1cc(-c2ccc(F)cc2)on1
0.851	14.5	377	42.1 (≈ 163 µM)			O=C1Nc2ccccc2O[C@H]2C[C@@H]1N(CC1CC1)C2
0.734	89.2	1320	16.8 (≈ 59.8 µM)			c1ccc(Cc2n[nH]c(CSc3ccccc3)n2)cc1
29.9	19.7	89.9				Cc1cc(Nc2ccc(F)cn2)cc(C2CCN(C(=O)Cn3nc(C)ccc3=O)C2)n1 (stereo unspecified)

MDR1-MDCK efflux ratio	intrinsic clearance, human liver microsomes [mL/min/kg]	intrinsic clearance, rat liver microsomes [mL/min/kg]	aqueous solubility [µg/mL]	fraction unbound, rat plasma	fraction unbound, human plasma	Structure (SMILES)
45.4	76.2	152	65.7 (≈ 149 µM)			CN(C)Cc1cccc(N/C(=C2\C(=O)Nc3cc(C(=O)N(C)C)ccc32)c2ccccc2)c1
1.37	515	1520	35 (≈ 104 µM)			O=C(OCc1cc(Cl)ccn1)c1ccc2[nH]c(C(F)F)nc2c1
0.717	84.7	800	36.2 (≈ 133 µM)			Fc1ccccc1CN1CCN(c2ncccn2)CC1
12.5	5.81	186	68.6 (≈ 165 µM)			Nc1nc(-c2ccccc2)nc2nc(C3CCCN(CC(=O)N4CCCC4)C3)ccc12 (stereo unspecified)
6.32	≤ 4.74	425				COc1cccc(C)c1C(=O)N(C)Cc1ncc[nH]1
	116	2190	27.4 (≈ 81.7 µM)			C=C(C)COc1ccc(C(=O)NCCc2cn3ccccc3n2)cc1
0.608	117	689	4.67 (≈ 18.8 µM)			Cn1ncc2cc(-c3ccnc4[nH]ccc34)ccc21
4.1	≤ 4.74	28.2	67.2 (≈ 218 µM)			Cn1cc(NC(=O)[C@@H]2CCCCN2C(=O)OC(C)(C)C)cn1
0.543	≤ 4.74	21.1	34.8 (≈ 151 µM)			O=C(NCc1ccc(F)cc1)c1ccccn1
1.09	181	3350	4.7 (≈ 11.2 µM)		0.0502	COc1ccc(OCC(=O)Nc2cccc(Cl)c2N2CCN(C(C)=O)CC2)cc1
0.664	11	124	26.8 (≈ 95.7 µM)			COc1cc(CNc2nc3ccccc3nc2C)ccn1
0.772	≤ 4.74	35.9	51.6 (≈ 198 µM)			O=C(Cc1ccc(Cl)cc1)NCc1ccncc1
	109	144	5.43 (≈ 15.6 µM)			CC(=O)n1c(/C=C2/N=C(c3ccc(F)cc3)OC2=O)cc2ccccc21
0.34				0.0151	0.0162	CCn1c(=O)oc2cc(NC(=O)c3ccc(C(C)(C)C)cc3)ccc21
	27.9	338	29.5 (≈ 114 µM)			Clc1ccc2[nH]c(COc3ccccc3)nc2c1
0.631	≤ 4.74	28	29.3 (≈ 128 µM)			CCCCNC(=O)c1cccc2ncccc12
0.574			0.33 (≈ 1.07 µM)			O=C(Nc1ccc(Cl)cn1)C1(c2cccc(Cl)c2)CC1
0.557	220	1510	41.1 (≈ 127 µM)			COc1ccccc1OC1CCN(Cc2ccccc2C#N)CC1
1.43	≤ 4.74	54.3	36.1 (≈ 116 µM)			Cc1cc(C)c(NC(=O)c2ccnc(OC3CCC3)c2)c(C)n1
0.961	446	559		0.0188	0.0244	CNC(=O)C1(Cc2ccc(-c3cccnc3)cc2)CCN(Cc2ccccc2Cl)C1 (stereo unspecified)

MDR1-MDCK efflux ratio	intrinsic clearance, human liver microsomes [mL/min/kg]	intrinsic clearance, rat liver microsomes [mL/min/kg]	aqueous solubility [µg/mL]	fraction unbound, rat plasma	fraction unbound, human plasma	Structure (SMILES)
1.55	≤ 4.74	58.2				COc1cc(OC)cc(N2CCC(NCC3(C)CCOCC3)CC2)c1
0.615	≤ 4.74	35.2	37.4 (≈ 181 µM)			OCCN1CCC(c2ccncn2)CC1
4.78	6.36	54.5				N#Cc1ccc2nc(NCCn3ccnc3)ccc2c1
12.6	≤ 4.74	77.8	60.9 (≈ 183 µM)			Cc1nc(C)c2c(C)c(C(=O)N(C)CCN3CCCC3)sc2n1
22.3	127	6150				Cc1ccc(F)cc1S(=O)(=O)Nc1ccc(C(=O)N2CCCC2)cc1
23.6	180	783	28 (≈ 58.3 µM)			CC(C)NC(=O)N1CC[C@H](NC2=Nc3cc(F)ccc3N(CC(F)F)c3ccc(Cl)cc32)C1
			3.27 (≈ 12.8 µM)			COc1cc(/C=C/c2nccc(C#N)n2)ccc1F
0.646	35.7	1530	23.6 (≈ 95.1 µM)			Cc1nnc(N2CCCSCC2)c(C#N)c1C
0.408	37.1	118	25.6 (≈ 97.4 µM)			CNc1nc(-c2cc(OC)cc(OC)c2)ncc1F
1.52	126	482	55 (≈ 179 µM)			Cc1ccc2cccc(OCC(=O)N(C)c3ccccc3)c2n1
0.591	283	4220	29.4 (≈ 112 µM)			CN(Cc1cccc(C#N)c1)Cc1ccccc1C#N
			29.9 (≈ 123 µM)			CN(Cc1cccc(C#N)c1)C(=O)CC(C)(C)C
	73	876	32.1 (≈ 131 µM)			Cc1csc(CCNc2ncccc2C#N)n1
1.57	133	857	51.4 (≈ 149 µM)			CCS(=O)(=O)N1CCC(C(=O)N(C)C2CCCCCCC2)CC1
	41.5	351	5.4 (≈ 17 µM)			Cc1ccc2oc([C@H]3CCN(Cc4ccc(C#N)cc4)C3)nc2c1
6.17	≤ 4.74	133	8.26 (≈ 22.5 µM)			O=C(NCc1ccc(F)cc1)C1CCN(C(=O)/C=C/c2ccccc2)CC1
	8.7	90.9				COc1cc2nc(-c3ccc(N4CCN(C)CC4)cc3)nc(NCCN3CCOCC3)c2cc1OC
	12	215				CCOc1ccc2nc3c(cc2c1)CN(CCOC)C(=O)O3
